Tests used:
[1] = tested on: normal NK cells expanded with K562-aAPC; assay: percent inhibition of viability; higher = more inhibition; settings: 72 h, IL-2 2.5 ng/mL
Description: (§1)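 Drug sensitivity and resistance testing on K562-aAPC-expanded normal NK cells: 5 concentrations (10-fold steps over a 10,000-fold range), 72 h at 37 °C, viability by CellTiter-Glo normalised to DMSO and benzethonium chloride controls; DSS from the fitted curve.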

[2] = tested on: DERL-7 (IL-2 2.5 ng/mL); assay: as above; settings: 72 h
[3] = tested on: IMC-1 (IL-2 20 ng/mL); assay: as above; settings: 72 h
[4] = tested on: KAI3 (IL-2 2.5 ng/mL); assay: as above; settings: 72 h
[5] = tested on: KHYG-1 (IL-2 2.5 ng/mL); assay: as above; settings: 72 h
[6] = tested on: NK-92 (IL-2 2.5 ng/mL); assay: as above; settings: 72 h
[7] = tested on: NK-YS (IL-2 2.5 ng/mL); assay: as above; settings: 72 h
[8] = tested on: NKL (IL-2 2.5 ng/mL); assay: as above; settings: 72 h
[9] = tested on: SNK-6 (IL-2 2.5 ng/mL); assay: as above; settings: 72 h
[10] = tested on: YT (IL-2 2.5 ng/mL); assay: as above; settings: 72 h
[11] = tested on: normal primary NK cells, pool 1 (3 donors) (IL-2 2.5 ng/mL); assay: as above; settings: 72 h
[12] = tested on: normal primary NK cells, pool 1 (3 donors), resting (IL-2 0 ng/mL); assay: as above; settings: 72 h
[13] = tested on: normal primary NK cells, pool 2 (3 donors) (IL-2 2.5 ng/mL); assay: as above; settings: 72 h
[14] = tested on: normal primary NK cells, pool 3 (3 donors) (IL-2 2.5 ng/mL); assay: as above; settings: 72 h
[15] = tested on: normal NK cells expanded with K562-aAPC; assay: drug sensitivity score (DSS) (DSS units); higher = more sensitive; extreme values may be limits of the assay; settings: 72 h; IL-2 2.5 ng/mL
Description: as §1

[16] = tested on: DERL-7 (IL-2 2.5 ng/mL); assay: as above; settings: 72 h
[17] = tested on: IMC-1 (IL-2 20 ng/mL); assay: as above; settings: 72 h
[18] = tested on: KAI3 (IL-2 2.5 ng/mL); assay: as above; settings: 72 h
[19] = tested on: KHYG-1 (IL-2 2.5 ng/mL); assay: as above; settings: 72 h
[20] = tested on: NK-92 (IL-2 2.5 ng/mL); assay: as above; settings: 72 h
[21] = tested on: NK-YS (IL-2 2.5 ng/mL); assay: as above; settings: 72 h
[22] = tested on: NKL (IL-2 2.5 ng/mL); assay: as above; settings: 72 h
[23] = tested on: SNK-6 (IL-2 2.5 ng/mL); assay: as above; settings: 72 h
[24] = tested on: YT (IL-2 2.5 ng/mL); assay: as above; settings: 72 h
[25] = tested on: normal primary NK cells, pool 1 (3 donors) (IL-2 2.5 ng/mL); assay: as above; settings: 72 h
[26] = tested on: normal primary NK cells, pool 1 (3 donors), resting (IL-2 0 ng/mL); assay: as above; settings: 72 h
[27] = tested on: normal primary NK cells, pool 2 (3 donors) (IL-2 2.5 ng/mL); assay: as above; settings: 72 h
[28] = tested on: normal primary NK cells, pool 3 (3 donors) (IL-2 2.5 ng/mL); assay: as above; settings: 72 h

COCC1(CO)C(=O)C2CCN1CC2 (configuration not stated) [APR-246] (max concentration tested 10000 nM)
percent inhibition of viability [%]
Settings | 1 nM | 10 nM | 100 nM | 1000 nM | 10000 nM
[1] | -2.16 | 1.78 | 5.44 | 14.3 | 66.4
[2] | 4.22 | 1.94 | 4.99 | -6.45 | 12.9
[3] | -7.37 | -2.9 | -3.59 | 8.76 | 9.03
[4] | -1.81 | 0.4 | -2.31 | 2.12 | 16.5
[5] | -5.21 | -0.64 | -2.81 | 5.38 | 7.34
[6] | -5.03 | 9.77 | 10.8 | 10.9 | 10.2
[7] | -7.21 | 1.41 | 3.46 | 5.78 | 20.9
[8] | -3.21 | -5.06 | 5.12 | 11 | 36.4
[9] | 4.82 | 6.66 | 11.8 | 20.5 | 26.2
[10] | -1.79 | -3.13 | 4.5 | 1.6 | 7.67
[11] | 0.39 | -11.5 | 5.91 | 70.5 | 98
[12] | -1.14 | -6.72 | 13.5 | 82.8 | 91.7
[13] | -11.3 | -4.04 | 11.3 | 77 | 96
[14] | -9.08 | -4.43 | 12.5 | 73 | 98

Settings | drug sensitivity score
[15] | 5.95
[16] | 0.03
[17] | 0
[18] | 0.58
[19] | 0
[20] | 0.65
[21] | 1.17
[22] | 3.01
[23] | 3.96
[24] | 0
[25] | 14.2
[26] | 16.9
[27] | 15.7
[28] | 15.2

Cc1cc(C(=O)NOCCO)c(Nc2ccc(I)cc2F)n(C)c1=O [AZD-8330] (max concentration tested 10000 nM)
percent inhibition of viability [%]
Settings | 1 nM | 10 nM | 100 nM | 1000 nM | 10000 nM
[1] | 0.89 | -5.14 | 2.35 | 1.49 | 5.67
[2] | 10.5 | 19.5 | 39.8 | 44.6 | 49.1
[3] | -6.12 | -4.24 | -7.8 | -3.57 | 1.54
[4] | 6.6 | 16.3 | 20.9 | 25.5 | 21.5
[5] | 4.36 | 28.4 | 50.2 | 60.9 | 59.9
[6] | -20.4 | -31.8 | -23.9 | -11.1 | -34
[7] | 1.92 | 6.63 | 7.16 | 17 | 13.5
[8] | 9.59 | 36 | 58.2 | 70.4 | 65
[9] | -15.8 | -23.2 | -25.2 | -18.2 | -8.48
[10] | 1.8 | 1.88 | -1.55 | 5.74 | 3.13
[11] | 1.16 | 3.34 | 2.94 | 11.4 | 20.3
[12] | -12.3 | -10.7 | -6.76 | 10.4 | 33.8
[13] | -6.21 | -3.9 | 6.25 | 1.91 | 6.61
[14] | -7.05 | -12 | -3.49 | 3.69 | 8.96

Settings | drug sensitivity score
[15] | 0
[16] | 15.5
[17] | 0
[18] | 0
[19] | 20.8
[20] | 0
[21] | 1.5
[22] | 24.7
[23] | 0
[24] | 0
[25] | 1.33
[26] | 3.07
[27] | 0
[28] | 0

CN(C)C/C=C/C(=O)Nc1cc2c(Nc3ccc(F)c(Cl)c3)ncnc2cc1O[C@H]1CCOC1 [Afatinib] (max concentration tested 1000 nM)
percent inhibition of viability [%]
Settings | 0.1 nM | 1 nM | 10 nM | 100 nM | 1000 nM
[1] | -3.84 | -0.9 | 0.35 | 8.86 | 23.9
[2] | 1.24 | -0.84 | 3.12 | 3.53 | 40.4
[3] | -4.64 | 0.23 | 3.73 | 0.77 | -7.53
[4] | -6.04 | -6.37 | -2.67 | -0.11 | 17.7
[5] | 1.25 | 0.47 | 0.09 | 5.88 | 8.01
[6] | -4.74 | -8.88 | -4.7 | 6.1 | 20
[7] | -6.74 | -1.03 | -0.59 | 1.9 | 17.9
[8] | 4.2 | 5.29 | 8.09 | 15.9 | 30.1
[9] | 5.26 | 23.4 | 23.4 | 27.9 | -1.27
[10] | 0.42 | 0.78 | 2.66 | 5.09 | 29.2
[11] | 0.9 | -20.4 | -8.14 | -16.9 | 17.6
[12] | 1.52 | -21.3 | -1.76 | -18.2 | 31.8
[13] | -9.45 | -8.4 | 7.17 | -5.73 | 18.4
[14] | -7.17 | -9.3 | 9.58 | -8.16 | 3.09

Settings | drug sensitivity score
[15] | 1.97
[16] | 2.57
[17] | 0
[18] | 0.41
[19] | 0
[20] | 1.32
[21] | 0.66
[22] | 3.07
[23] | 0
[24] | 2.06
[25] | 0.16
[26] | 0.88
[27] | 0.29
[28] | 0

Source: the supplement of paper PMC5908809
